Drawing on ChEMBL document CHEMBL1143961, “Synthesis and antiplatelet activity of ethyl 4-(1-benzyl-1H-indazol-3-yl)benzoate (YD-3) derivatives” (Bioorg Med Chem, 2008), this text covers inhibition, IC50 and Activity for two molecules.

Broadly, the inhibition is the change of the read-out against control, counted positive when it falls. In general, IC50 refers to the concentration at which inhibition is half-maximal. Low values mean inhibition by little substance, high ones a need for much substance.

Where only a bound is given, the exact number is not on record here.

The target in assay [1] is T1, Proteinase-activated receptor 4 (Homo sapiens) (UniProt Q96RI0).
T1 sequence (whole entry): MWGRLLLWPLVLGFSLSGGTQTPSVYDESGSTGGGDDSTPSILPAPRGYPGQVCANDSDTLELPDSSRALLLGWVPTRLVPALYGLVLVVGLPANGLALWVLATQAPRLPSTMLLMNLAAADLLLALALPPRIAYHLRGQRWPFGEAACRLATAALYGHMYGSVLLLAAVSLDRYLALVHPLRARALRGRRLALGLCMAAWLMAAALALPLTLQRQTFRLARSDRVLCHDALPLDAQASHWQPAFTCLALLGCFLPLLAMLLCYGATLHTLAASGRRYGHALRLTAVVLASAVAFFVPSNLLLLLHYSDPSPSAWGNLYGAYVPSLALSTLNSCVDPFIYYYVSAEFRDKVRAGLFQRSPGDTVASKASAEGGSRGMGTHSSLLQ
As to the kind of experiment: Inhibition of PAR4-mediated GYPGKF-induced P-selectin expression in human platelet at 5 uM.

Assay [2] has as its system Platelet. As to the kind of experiment: Inhibition of SFLLRN-induced human platelet aggregation. In kind it is functional, cell-based.
For assay [3], the target named is T1, Proteinase-activated receptor 4 (Homo sapiens). As to the kind of experiment: Inhibition of PAR4-mediated GYPGKF-induced ATP release in human platelet assessed per 3*10^8 platelets at 5 uM.
The subject of assay [4] is Platelet. As to the kind of experiment: Inhibition of arachidonic acid-stimulated thromboxane B2 formation in human platelet assessed per 3*10^8 platelets at 5 uM. It counts as functional.
Assay [5] has as its system Platelet. In words: Inhibition of U46619-induced human platelet aggregation. In kind it is functional, cell-based.
In assay [6] the test system is Platelet. As to the kind of experiment: Inhibition of GYPGKF-induced human platelet aggregation. It counts as functional, cell-based.
Assay [7] relates to Platelet. In words: Inhibition of collagen-induced human platelet aggregation. It counts as functional, cell-based.
In assay [8] the test system is Platelet. As to the kind of experiment: Inhibition of thrombin-induced human platelet aggregation. It counts as functional, cell-based.
Assay [9] has as its system Platelet. As to the kind of experiment: Inhibition of arachidonic acid-stimulated thromboxane B2 formation in human platelet at 5 uM. In kind it is functional.
For assay [10], the target named is T1, Proteinase-activated receptor 4 (Homo sapiens). In words: Inhibition of PAR4-mediated GYPGKF-induced P-selectin expression in human platelet at 1 uM.
For assay [11] the target is unchanged. As to the kind of experiment: Inhibition of PAR4-mediated GYPGKF-induced ATP release in human platelet assessed per 3*10^8 platelets at 1 uM.

With `CCOC(=O)c1ccc(-c2nn(-c3ccccc3)c3ccccc23)cc1`, the inhibition in assay [1] was 1.6%. Besides, the half-inhibitory concentration (IC50) is above 10 µM in the assay with Platelet [2]; above 10 µM in the assay with Platelet [5]; 2.64 µM in the assay on Platelet [6]; 4.81 µM in the assay with Platelet [7]; above 10 µM in the assay with Platelet [8]. Further, the Activity came out at 1.8 ng in [3] and 24.4 ng in the assay with Platelet [4]. This molecule registered an inhibition at 5 µM in the assay on Platelet [9] of 98.5%.

For the molecule `CCOC(=O)c1ccc(-c2nn(Cc3ccccn3)c3ccccc23)cc1`, the IC50 in the assay on Platelet [2] is above 10 µM; with Platelet [5], above 10 µM; in the assay with Platelet [6] it was 0.29 µM; with Platelet [7], above 10 µM; with Platelet [8], above 10 µM. Moreover, the Activity in the assay with Platelet [4] came out at 1013.7 ng; in assay [11], 3.7 ng. This molecule came in with an inhibition in [10] of 1.2%.
